Laboratory results reported in ChEMBL document CHEMBL5291721, “A preclinical secondary pharmacology resource illuminates target-adverse drug reaction associations of marketed drugs” (Nat Commun, 2023).

What was measured:
[1] = molecular target: T1, Alpha-2A adrenergic receptor (Homo sapiens, UniProt P08913); assay type: functional, cell-based
T1 sequence (P08913 whole entry): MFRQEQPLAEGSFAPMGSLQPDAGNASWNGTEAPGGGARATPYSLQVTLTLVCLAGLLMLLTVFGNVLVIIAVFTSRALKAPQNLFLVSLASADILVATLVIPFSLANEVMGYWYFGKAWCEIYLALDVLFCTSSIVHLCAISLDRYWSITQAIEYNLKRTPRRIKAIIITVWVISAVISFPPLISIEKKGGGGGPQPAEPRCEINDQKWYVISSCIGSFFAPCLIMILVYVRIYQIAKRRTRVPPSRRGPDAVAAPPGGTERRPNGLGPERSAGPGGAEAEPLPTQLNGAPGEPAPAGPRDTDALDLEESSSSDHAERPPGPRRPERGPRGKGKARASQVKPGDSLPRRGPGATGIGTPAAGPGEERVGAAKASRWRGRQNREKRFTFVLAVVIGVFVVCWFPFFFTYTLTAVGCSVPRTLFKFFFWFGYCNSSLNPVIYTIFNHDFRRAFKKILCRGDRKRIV

[2] = molecular target: 5-hydroxytryptamine receptor 2B (Homo sapiens, UniProt P41595); assay type: functional, cell-based
Progesterone receptor = molecular target: T2, Progesterone receptor (Homo sapiens, UniProt P06401); assay type: functional
T2 sequence (P06401 whole entry): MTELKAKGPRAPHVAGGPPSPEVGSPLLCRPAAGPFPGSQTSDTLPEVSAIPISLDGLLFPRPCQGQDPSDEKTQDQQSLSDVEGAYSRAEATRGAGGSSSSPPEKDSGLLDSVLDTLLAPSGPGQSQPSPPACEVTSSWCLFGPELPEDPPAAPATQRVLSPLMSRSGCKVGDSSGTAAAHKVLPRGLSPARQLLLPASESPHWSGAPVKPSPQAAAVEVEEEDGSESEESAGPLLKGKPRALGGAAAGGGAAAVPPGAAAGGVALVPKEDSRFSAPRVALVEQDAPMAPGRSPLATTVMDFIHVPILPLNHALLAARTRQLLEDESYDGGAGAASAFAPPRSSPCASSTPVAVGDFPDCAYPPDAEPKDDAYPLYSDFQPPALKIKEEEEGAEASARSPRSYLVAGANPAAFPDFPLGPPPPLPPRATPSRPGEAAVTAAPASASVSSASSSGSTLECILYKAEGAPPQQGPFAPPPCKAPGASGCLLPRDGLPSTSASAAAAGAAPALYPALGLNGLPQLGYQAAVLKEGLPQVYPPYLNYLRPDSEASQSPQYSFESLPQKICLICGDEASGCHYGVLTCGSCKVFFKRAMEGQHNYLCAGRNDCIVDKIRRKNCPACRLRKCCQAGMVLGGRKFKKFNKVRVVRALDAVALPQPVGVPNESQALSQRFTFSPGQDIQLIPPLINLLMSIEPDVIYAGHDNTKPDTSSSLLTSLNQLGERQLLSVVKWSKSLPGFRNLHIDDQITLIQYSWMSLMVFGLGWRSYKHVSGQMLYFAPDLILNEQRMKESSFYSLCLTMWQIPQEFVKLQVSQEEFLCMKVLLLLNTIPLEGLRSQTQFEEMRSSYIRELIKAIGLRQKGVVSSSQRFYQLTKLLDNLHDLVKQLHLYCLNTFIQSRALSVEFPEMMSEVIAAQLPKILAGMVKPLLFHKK

[3] = molecular target: T3, Equilibrative nucleoside transporter 1 (Homo sapiens, UniProt Q99808)
T3 sequence (Q99808 whole entry): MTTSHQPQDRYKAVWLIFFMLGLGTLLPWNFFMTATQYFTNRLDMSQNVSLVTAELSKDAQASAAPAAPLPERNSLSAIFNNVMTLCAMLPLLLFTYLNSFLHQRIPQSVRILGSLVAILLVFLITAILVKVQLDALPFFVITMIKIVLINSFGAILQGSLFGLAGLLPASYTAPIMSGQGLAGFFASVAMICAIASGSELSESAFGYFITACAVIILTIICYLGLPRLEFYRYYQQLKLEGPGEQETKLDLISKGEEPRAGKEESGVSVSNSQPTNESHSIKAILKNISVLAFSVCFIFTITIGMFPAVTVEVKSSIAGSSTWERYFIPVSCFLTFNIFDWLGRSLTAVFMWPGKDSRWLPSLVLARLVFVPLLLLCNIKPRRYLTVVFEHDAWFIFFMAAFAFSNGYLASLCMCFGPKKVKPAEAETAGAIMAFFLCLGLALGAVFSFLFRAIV

[4] = molecular target: Sodium-dependent serotonin transporter (Homo sapiens, UniProt P31645)
[5] = molecular target: Glutamate receptor ionotropic, NMDA 1 (Rattus norvegicus, UniProt P35439)
[6] = molecular target: T4, Neuropeptide Y receptor type 1 (Homo sapiens, UniProt P25929)
T4 sequence (P25929 whole entry): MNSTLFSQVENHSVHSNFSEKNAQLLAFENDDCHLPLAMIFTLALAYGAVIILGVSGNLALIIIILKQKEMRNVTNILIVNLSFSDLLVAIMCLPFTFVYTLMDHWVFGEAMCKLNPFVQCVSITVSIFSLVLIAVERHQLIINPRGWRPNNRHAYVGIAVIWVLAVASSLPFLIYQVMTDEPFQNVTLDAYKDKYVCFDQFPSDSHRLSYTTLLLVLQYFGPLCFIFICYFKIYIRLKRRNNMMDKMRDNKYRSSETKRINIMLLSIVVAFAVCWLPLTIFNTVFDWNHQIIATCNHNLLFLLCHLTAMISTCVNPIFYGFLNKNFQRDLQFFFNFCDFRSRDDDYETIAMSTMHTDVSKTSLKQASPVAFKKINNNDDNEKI

Measured: AC50
Also: assay procedure not described here.

Sequence of Sodium-dependent serotonin transporter (P31645 whole entry): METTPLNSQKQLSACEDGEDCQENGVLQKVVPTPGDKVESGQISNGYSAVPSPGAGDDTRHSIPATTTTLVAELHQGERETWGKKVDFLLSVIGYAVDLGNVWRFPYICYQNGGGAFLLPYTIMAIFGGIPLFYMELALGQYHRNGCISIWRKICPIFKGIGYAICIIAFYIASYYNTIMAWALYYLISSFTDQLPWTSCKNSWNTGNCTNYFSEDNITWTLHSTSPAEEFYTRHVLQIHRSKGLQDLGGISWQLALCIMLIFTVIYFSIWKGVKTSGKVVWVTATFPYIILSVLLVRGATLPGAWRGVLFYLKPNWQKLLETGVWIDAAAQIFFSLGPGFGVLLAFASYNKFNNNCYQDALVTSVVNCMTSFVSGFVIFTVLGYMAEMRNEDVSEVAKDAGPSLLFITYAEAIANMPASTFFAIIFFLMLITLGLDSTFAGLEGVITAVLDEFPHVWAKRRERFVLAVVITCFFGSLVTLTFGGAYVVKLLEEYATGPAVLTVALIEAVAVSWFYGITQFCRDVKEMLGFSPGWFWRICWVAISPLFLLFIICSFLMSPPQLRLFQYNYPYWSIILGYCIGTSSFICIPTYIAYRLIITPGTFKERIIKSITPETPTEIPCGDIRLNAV
Sequence of 5-hydroxytryptamine receptor 2B (P41595 whole entry): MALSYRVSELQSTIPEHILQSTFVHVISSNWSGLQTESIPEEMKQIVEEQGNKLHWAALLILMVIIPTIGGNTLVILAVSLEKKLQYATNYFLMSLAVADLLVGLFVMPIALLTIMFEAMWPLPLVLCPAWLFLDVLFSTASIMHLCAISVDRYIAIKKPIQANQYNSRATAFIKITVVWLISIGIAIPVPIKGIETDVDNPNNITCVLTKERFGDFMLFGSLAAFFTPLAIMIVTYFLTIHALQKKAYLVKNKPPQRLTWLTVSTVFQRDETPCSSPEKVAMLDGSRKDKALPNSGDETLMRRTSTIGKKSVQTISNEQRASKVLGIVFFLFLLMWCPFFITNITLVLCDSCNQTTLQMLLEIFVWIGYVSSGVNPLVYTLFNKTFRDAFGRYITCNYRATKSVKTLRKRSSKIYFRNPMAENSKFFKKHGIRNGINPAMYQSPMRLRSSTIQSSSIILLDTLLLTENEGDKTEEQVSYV

OCC(CO)N[C@H]1C[C@](O)(CO)[C@@H](O)[C@H](O)[C@H]1O [VOGLIBOSE]
> 30 µM: all assays above
